Here are results for one compound from ChEMBL document CHEMBL4130353, “2-Substituted 3,7,8-trimethylnaphtho[1,2-b]furan-4,5-diones as specific L-shaped NQO1-mediated redox modulators for the treatment of non-small cell lung cancer” (Eur J Med Chem, 2017).

In series [1] the test system is A549. In words: Effect on total p38 protein levels in human A549 cells at 10 uM after 3 hrs in presence of DIC by Western blot analysis relative to control. The series is classed as ADME, cell-based. To be noted: a549, 3 h. On the technique in general: A western blot detects proteins with antibodies after separation by electrophoresis.
Series [2] in a line: Effective permeability of the compound at pH 7.4 by PAMPA assay. The series is classed as ADME. The conditions noted are these: read-out: Peff. On the technique in general: The PAMPA barrier holds no transporters, so it reflects passive diffusion.
Series [3] addresses NAD(P)H dehydrogenase [quinone] 1 (Homo sapiens) (UniProt P15559). In words: Substrate activity at NQO1 in human A549 cells assessed as induction of ROS-induced p38 phosphorylation at T180/Y182 at 5 uM after 3 hrs by Western blot analysis relative to control. It counts as cell-based.
The target is the same in series [4]. In words: Substrate activity at NQO1 in human A549 cells assessed as induction of ROS-induced p38 phosphorylation at T180/Y182 at 10 uM after 3 hrs in presence of NAC by Western blot analysis relative to control. The series is classed as cell-based.
For series [5] the target is unchanged. The experiment in a line: Substrate activity at NQO1 in human A549 cells assessed as induction of ROS-induced ERK phosphorylation at 1 uM after 3 hrs by Western blot analysis relative to control. The series is classed as cell-based.
For another series, the species on record is Homo sapiens. In words: Selectivity ratio for substrate activity at recombinant human NQO1 to substrate activity at human CPR.
The subject of another series is L02. In words: Cytotoxicity against human L02 cells assessed as cell growth inhibition preincubated for 24 hrs followed by compound washout measured after 72 hrs by MTT assay. It counts as cell-based. On the technique in general: Formazan colour is commonly taken as a measure of viable cells.
Series [6] addresses NAD(P)H dehydrogenase [quinone] 1 (Homo sapiens) (UniProt P15559). In words: Substrate activity at recombinant human NQO1 expressed in Escherichia coli assessed as reduction rate by measuring umol of NADPH utilized per umol of enzyme at 10 uM preincubated for 3 mins followed by NADPH addition measured at 2 secs interval for 5 mins by UV-Vis spectroscopy.
The test system of series [7] is A549. In words: Effect on total ERK protein levels in human A549 cells at 10 uM after 3 hrs in presence of NAC by Western blot analysis relative to control. It counts as ADME, cell-based. To be noted: a549, 3 h.
In series [8] the test system is A549. The experiment in a line: Effect on total p38 protein levels in human A549 cells at 1 uM after 3 hrs by Western blot analysis relative to control. To be noted: a549, 3 h. It counts as ADME, cell-based.
Series [9] has as its system A549. In words: Effect on total ERK protein levels in human A549 cells at 10 uM after 3 hrs by Western blot analysis relative to control. It counts as ADME, cell-based. The conditions noted are these: a549, 3 h.
Series [10] addresses NAD(P)H dehydrogenase [quinone] 1 (Homo sapiens) (UniProt P15559). The experiment in a line: Substrate activity at NQO1 in human A549 cells assessed as induction of ROS-induced ERK phosphorylation at 10 uM after 3 hrs in presence of NAC by Western blot analysis relative to control. It counts as cell-based.
In series [11] the target is T1, NADPH--cytochrome P450 reductase (Homo sapiens, UniProt P16435).
T1 sequence (P16435 whole entry): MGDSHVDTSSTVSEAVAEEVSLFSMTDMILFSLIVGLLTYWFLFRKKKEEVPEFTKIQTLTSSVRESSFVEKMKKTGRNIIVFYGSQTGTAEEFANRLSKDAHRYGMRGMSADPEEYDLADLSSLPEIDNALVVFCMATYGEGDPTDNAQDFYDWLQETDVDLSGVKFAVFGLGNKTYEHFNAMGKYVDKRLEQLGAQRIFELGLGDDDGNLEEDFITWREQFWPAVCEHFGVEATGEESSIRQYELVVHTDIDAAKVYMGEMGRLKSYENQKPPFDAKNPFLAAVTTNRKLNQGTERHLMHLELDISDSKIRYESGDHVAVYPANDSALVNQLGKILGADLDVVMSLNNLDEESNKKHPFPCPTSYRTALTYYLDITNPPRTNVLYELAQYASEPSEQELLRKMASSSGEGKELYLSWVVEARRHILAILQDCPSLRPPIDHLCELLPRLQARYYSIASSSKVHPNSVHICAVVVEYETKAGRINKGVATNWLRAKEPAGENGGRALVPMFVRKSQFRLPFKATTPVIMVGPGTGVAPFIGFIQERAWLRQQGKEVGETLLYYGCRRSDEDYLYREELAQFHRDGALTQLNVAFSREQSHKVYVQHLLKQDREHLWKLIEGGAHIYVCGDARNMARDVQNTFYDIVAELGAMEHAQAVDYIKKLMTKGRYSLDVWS
In words: Substrate activity at human CPR expressed in baculovirus expression system assessed as reduction rate by measuring umol of NADPH utilized per umol of enzyme at 10 uM preincubated for 3 mins followed by NADPH addition measured at 2 secs interval for 5 mins by UV-Vis spectroscopy. It counts as ADME.

Series [12] is described as follows: Lipophilicity, log D of the compound at pH 7.4. The series is classed as physicochemical. To be noted: buffer.
Series [13] deals with NAD(P)H dehydrogenase [quinone] 1 (Homo sapiens) (UniProt P15559). In words: Substrate activity at NQO1 in human A549 cells assessed as induction of ROS-induced Akt phosphorylation at […] at 10 uM after 3 hrs in presence of DIC by Western blot analysis relative to control. The series is classed as cell-based.
Sequence of NAD(P)H dehydrogenase [quinone] 1 (Homo sapiens) (P15559 whole entry): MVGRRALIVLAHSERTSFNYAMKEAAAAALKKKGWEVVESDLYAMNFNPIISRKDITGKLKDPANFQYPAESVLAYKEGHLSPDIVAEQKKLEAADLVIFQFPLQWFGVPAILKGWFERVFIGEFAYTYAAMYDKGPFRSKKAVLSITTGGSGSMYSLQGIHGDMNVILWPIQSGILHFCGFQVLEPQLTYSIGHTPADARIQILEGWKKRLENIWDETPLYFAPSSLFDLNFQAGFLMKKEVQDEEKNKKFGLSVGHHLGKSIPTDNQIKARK

As a reminder, the IC50 is the concentration needed to halve the response being measured. For orientation: logD means the decadic logarithm of the distribution of all forms, ionised or not, between an organic phase and buffer at a given pH. Higher therefore signals higher lipophilicity. Turning to `Cc1cc2c(cc1C)-c1oc(CNc3ccc(CN4CCOCC4)cc3)c(C)c1C(=O)C2=O`, the “fold change (FC)” value in the series with A549 [1] was determined as 1.03; in [3], 12.1; in [4] it was 11.2; in series [5], 2; with A549 [7], 1.11; in the series on A549 [8] it was 0.93. For the same compound, the results for the “fold change (FC)” value (in the series on A549 [9]; in [10]; in [13]) were 1.02, 2.21 and 1.96, respectively. Besides, in [2], the Papp is 46.5 ×10⁻⁶ cm/s. Besides, in the series filed under Homo sapiens, the Selectivity ratio is 20.8. The IC50 in the series on L02 worked out at 35 µM. Further, the Activity was 1520 µmol/min in series [6] and 73 µmol NADPH/min/µmol enzyme in series [11]. In series [12], this compound showed a logD of 3.1.
